Laboratory results as given in PubChem BioAssay AID2823 (Broad Institute, 2010).
Active and inactive are the calls of the source. No rule for the calls is given here.

Molecular target: RanGTP-importin-beta complex (human Ran / KPNB1)
Test: disruptors of RanGTP/KPNB1 binding – biochemical, FRET, CFP/YFP, cell-free homogeneous, confirmation (AID 2823)
Conditions: CFP-Ran/YFP-importin-beta FRET ratio

SMILES: CCc1cc(=O)oc2c(CN3CCN(C)CC3)c(O)c(Cl)cc12
- IC50: 27.1 µM

SMILES: COc1ccccc1Nc1c2ccccc2nc2ccccc12
- IC50: > 50 µM (inactive)

SMILES: Nc1nc2nc(-c3ccc(OCc4ccccc4)cc3)cc(C(F)(F)F)n2n1
- IC50: 4.09 µM

SMILES: CC1CC(=O)N(CC(=O)Nc2cccc(Cl)c2)c2ccccc2S1(=O)=O (configuration not stated)
- IC50: > 50 µM (inactive)

SMILES: N#Cc1ccc(/C=C(\C(=O)C(=O)O)c2ccc3ccccc3n2)cc1
- IC50: 12 µM

SMILES: COc1ccc2cc(C(=O)N/N=C/c3sc4ccccc4c3O)ccc2c1
- IC50: > 50 µM (inactive)

SMILES: O=S(=O)(Cc1ccc(Cl)cc1)Nc1ccc2c(c1)OCO2
- IC50: > 50 µM (inactive)

SMILES: N#Cc1ccccc1NC(=O)C1CC(=O)N(c2ccc3c4c(cccc24)CC3)C1 (configuration not stated)
- IC50: > 50 µM (inactive)

SMILES: CC(=O)Nc1cc(C(=O)N(C)Cc2ccco2)ccc1Sc1ccc(Cl)cc1
- IC50: > 50 µM (inactive)

SMILES: COc1ccc(C(=O)Nc2ccc(S(=O)(=O)Nc3onc(C)c3C)cc2)cc1
- IC50: > 50 µM (inactive)

SMILES: Cc1c(OC(=O)N(C)C)ccc2c1O/C(=C\c1ccco1)C2=O
- IC50: 12.5 µM

SMILES: COC(=O)C1=CN(Cc2ccccc2)C=C(C(=O)OC)C1c1cc(F)ccc1F
- IC50: 15.9 µM

SMILES: CC1(C)CC(=O)C/C(=N\NC(=O)C2CC23CCC3)C1 (configuration not stated)
- IC50: > 50 µM (inactive)

SMILES: CC1=NN(C(=O)c2ccccc2)C(O)(c2ccc(Br)cc2)C1 (configuration not stated)
- IC50: > 50 µM (inactive)

SMILES: CCOC(=O)/C(C#N)=C1/C=Nc2ccccc2N1
- IC50: > 50 µM (inactive)

SMILES: N#C/C(=C/c1cn(CC(=O)O)c2ccccc12)C(=O)NCc1ccccc1
- IC50: > 50 µM (inactive)

SMILES: CCOC(=O)/C(C#N)=C/c1c(N2CCN(c3ccc(OC)cc3)CC2)nc2c(C)cccn2c1=O
- IC50: > 50 µM (inactive)

SMILES: NC(=O)c1sc2nccc(Nc3ccccc3)c2c1N
- IC50: > 50 µM (inactive)

SMILES: CC1(C(=O)O)C=CCN1C(=O)c1ccccc1 (configuration not stated)
- IC50: > 50 µM (inactive)

SMILES: O=C(C1CCCCC1)N1CC(=O)N2CCc3ccccc3C2C1 (configuration not stated)
- IC50: > 50 µM (inactive)

SMILES: O=C1/C(=C/c2cccs2)Sc2ccccc21
- IC50: > 50 µM (inactive)

SMILES: Cc1c(CC(=O)N2CCN(C(=O)C3COc4ccccc4O3)CC2)c(=O)oc2cc(O)c(Cl)cc12 (configuration not stated)
- IC50: 4.84 µM

SMILES: COc1cc(C(=O)NCCNc2nc3cc(C)ccc3cc2C#N)cc(OC)c1OC
- IC50: 34.6 µM

SMILES: COc1ccc(N2C(=O)CC(C#N)=C2N)cc1
- IC50: > 50 µM (inactive)

SMILES: COCCNC(=O)/C(C#N)=C/c1ccc(-c2ccc(S(=O)(=O)N3CCOCC3)cc2)o1
- IC50: > 50 µM (inactive)

SMILES: CC(C)Cc1nn2c(N)c(/C=C3\C=Nc4ccccc43)c(=O)nc2s1
- IC50: > 50 µM (inactive)

SMILES: CCOC(=O)C1=C(N)OC2=C(C(=O)CCC2)C1c1sccc1C (configuration not stated)
- IC50: > 50 µM (inactive)

SMILES: COC(=O)c1cc(=O)n2c(sc3ccccc32)c1C#N
- IC50: 1.32 µM

SMILES: Cn1c(=O)c2c(ncn2CCOc2ccc(F)cc2)n(C)c1=O
- IC50: > 50 µM (inactive)

SMILES: Cc1ccc(OCC(=O)NNc2c3ccccc3nc3ccccc23)cc1
- IC50: > 50 µM (inactive)

SMILES: Cc1cc(NC(=O)c2sc3ccccc3c2O)no1
- IC50: 26.3 µM

SMILES: Cc1c(N=Cc2c(O)n(Cc3ccco3)c(=O)c3ccccc23)c(=O)n(-c2ccccc2)n1C
- IC50: > 50 µM (inactive)

SMILES: Cc1ccc(O)c(Nc2c3ccccc3nc3ccccc23)c1
- IC50: 48.8 µM

SMILES: Cc1ccc2nc(N3CCN(C(=O)c4cccs4)CC3)c(C#N)cc2c1
- IC50: 17.7 µM

SMILES: Cc1cccc2cc(C#N)c(NCCNC(=O)COc3ccccc3)nc12
- IC50: > 50 µM (inactive)

SMILES: CC#CC(=O)N1CCC(C(=O)Nc2ccc(Oc3ccccc3)nc2)CC1
- IC50: > 50 µM (inactive)

SMILES: COc1ccc(CCn2c(=N)c(C(=O)NCC3CCCO3)cc3c(=O)n4cccc(C)c4nc32)cc1 (configuration not stated)
- IC50: 11.5 µM

SMILES: COC(=O)c1ccc(NC(=O)C(=O)N2CCN(C(=S)Nc3ccccc3OC)CC2)cc1
- IC50: > 50 µM (inactive)

SMILES: COc1ccc(-c2c(C)sc(NC(=O)c3ccnn3C)c2C#N)cc1
- IC50: > 50 µM (inactive)

SMILES: CC1Cc2cc(/C(O)=C3/C(=O)C(=O)N(Cc4ccncc4)C3c3ccc(N(C)C)cc3)ccc2O1 (configuration not stated)
- IC50: > 50 µM (inactive)

SMILES: CCOC(=O)C/C(=N\Nc1ncnc2ccccc12)c1ccccc1
- IC50: > 50 µM (inactive)

SMILES: O=C(Nc1cccc(OC(=O)N2CCCCC2)c1)N1CCCCC1
- IC50: > 50 µM (inactive)

SMILES: CCc1ccc(S(=O)(=O)Nc2ccc(-c3nc4cccnc4s3)cc2)s1
- IC50: > 50 µM (inactive)

SMILES: Cc1cccc(N2CCN(C(=O)C3COc4ccccc4O3)CC2)c1C (configuration not stated)
- IC50: > 50 µM (inactive)

SMILES: COCc1cc(CN2CCN(C)CC2)c(O)c2ncccc12
- IC50: > 50 µM (inactive)

SMILES: CC(C)SCC(=O)Nc1ncc2c(n1)-c1ccccc1CC2
- IC50: 10.1 µM

SMILES: CCOc1ccc2nc(SCC(=O)NCc3ccc4c(c3)OCO4)[nH]c2c1
- IC50: > 50 µM (inactive)

SMILES: COCC(C)OC(=O)c1c(N)n(CC(C)C)c2nc3ccccc3nc12 (configuration not stated)
- IC50: 28.5 µM

SMILES: CC1CCCCN1C(=O)Cn1c(=O)oc2cc(S(=O)(=O)N3CCCC3)ccc21 (configuration not stated)
- IC50: > 50 µM (inactive)

SMILES: O=C(/C=C/c1ccccc1[N+](=O)[O-])N1CCN(c2ccc(F)cc2)CC1
- IC50: > 50 µM (inactive)

SMILES: Cc1ccccc1/C=N/Nc1ccnc2cc(Cl)ccc12
- IC50: > 50 µM (inactive)

SMILES: Cn1c(=O)cc(N2CCCCC2)[nH]c1=O
- IC50: > 50 µM (inactive)

SMILES: Cc1ccc(-n2c(O)c(/C=N/N3CCCCCC3)c(=O)[nH]c2=O)cc1C
- IC50: > 50 µM (inactive)

SMILES: Cc1ccc(C2NC(=O)c3c(sc(C)c3C)N2)c(O)c1 (configuration not stated)
- IC50: > 50 µM (inactive)

SMILES: O=C1NC(=O)N(Cc2ccccc2)C(=O)/C1=C\N1CCCc2ccccc21
- IC50: > 50 µM (inactive)

SMILES: CCN1CCc2c(sc(NC(=O)Cc3ccccc3)c2C(=O)OC)C1
- IC50: > 50 µM (inactive)

SMILES: O=C(Cn1c2ccccc2c(=O)c2ccccc21)N/N=C/c1ccc(N2CCCC2)c([N+](=O)[O-])c1
- IC50: > 50 µM (inactive)

SMILES: Cc1ccc2cc(C#N)c(NCCNC(=O)C3CCC3)nc2c1C
- IC50: > 50 µM (inactive)

SMILES: COc1ccc(CNCc2c(O)c(Cl)cc3c(C)c(C)c(=O)oc23)c(OC)c1
- IC50: 6.06 µM

SMILES: CCCc1n(CC(O)COCc2ccccc2)c2ccccc2[n+]1C (configuration not stated)
- IC50: > 50 µM (inactive)

SMILES: O=C(CN1C(=O)NC2(CCCC2)C1=O)Nc1nc2c(F)cc(F)cc2s1
- IC50: > 50 µM (inactive)

SMILES: COc1ccc(CCNC(=O)c2cc3c(=O)n4cccc(C)c4nc3n(CCCN3CCOCC3)c2=N)cc1
- IC50: 4.87 µM

SMILES: c1ccc(Nc2nc3ccccc3n3nnnc23)cc1
- IC50: 27.7 µM

SMILES: COC(=O)C1=CN(c2ccc(OC)cc2)C=C(C(=O)OC)C1c1cccc(F)c1
- IC50: 35.2 µM

SMILES: Cc1sc2nc(SCC(=O)NCc3ccco3)n(-c3ccccc3)c(=O)c2c1C
- IC50: > 50 µM (inactive)

SMILES: CC(C)Cc1ccc(CN2CCC(n3nccc3NC(=O)C3CCCC3)CC2)cc1
- IC50: > 50 µM (inactive)

SMILES: Cn1c(SCc2cccc([N+](=O)[O-])c2)nc2c(c1=O)SCC2
- IC50: > 50 µM (inactive)

SMILES: CCCn1c(SCC(=O)Nc2ccc(NC(C)=O)cc2)nc2c1c(=O)n(C)c(=O)n2C
- IC50: > 50 µM (inactive)

SMILES: Cn1c(=O)cc(OCCCC(=O)NCc2ccccn2)c2ccccc21
- IC50: > 50 µM (inactive)

SMILES: Cc1ccc(OCC(=O)NCCNC(=O)c2ccc(C)nc2)cc1
- IC50: > 50 µM (inactive)

SMILES: Cc1ccc(Nc2nc(N)[nH]c(=O)c2N=O)cc1
- IC50: 16.1 µM

SMILES: C=CCn1c(=O)c(C(=O)Nc2ccc(C)cc2)c(O)c2ccccc21
- IC50: > 50 µM (inactive)

SMILES: CCOC(=O)c1ccc(NC(=O)CSc2nc(C)nc3c2c(=O)n(C)c(=O)n3C)cc1
- IC50: > 50 µM (inactive)

SMILES: CCn1c(=O)cc(N2CCCCC2)[nH]c1=O
- IC50: > 50 µM (inactive)

SMILES: Cc1ccccc1-n1nc2c(c1NC(=O)c1cc3ccccc3oc1=O)CS(=O)(=O)C2
- IC50: > 50 µM (inactive)

SMILES: C=CCn1c(N)c(C(=O)OCCC)c2nc3ccccc3nc21
- IC50: 26 µM

SMILES: COC(=O)c1cc(C(=O)OC)[nH]n1
- IC50: > 50 µM (inactive)

SMILES: C#CCOc1ccc(C2C3=C(CC(C)(C)CC3=O)N(CC(=O)O)C3=C2C(=O)CC(C)(C)C3)cc1OC
- IC50: 32 µM

SMILES: CC(=O)Oc1cc2oc(=O)cc(C)c2cc1OC(C)=O
- IC50: 24.7 µM

SMILES: COc1cccc(C(=O)/C=C/Nc2cc(C)ccc2O)c1
- IC50: > 50 µM (inactive)

SMILES: CCCn1cnc2cc(NCc3ccc(Br)cc3)ccc21
- IC50: > 50 µM (inactive)

SMILES: Cc1ccc(NC(=O)C2CCN(S(=O)(=O)c3ccc(Cl)c(C(F)(F)F)c3)CC2)nc1
- IC50: > 50 µM (inactive)

SMILES: CCc1ccccc1N(CC(=O)NCc1ccco1)C(=O)CCC(=O)Nc1nccs1
- IC50: > 50 µM (inactive)

SMILES: O=[N+]([O-])c1ccc(CNC2CCCc3ccccc32)cc1 (configuration not stated)
- IC50: > 50 µM (inactive)

SMILES: OCC1(Cc2cccc(Cl)c2)CCCN(Cc2ccc3cc(F)ccc3n2)C1 (configuration not stated)
- IC50: > 50 µM (inactive)

SMILES: Cc1nc2ccccc2n1CC(=O)N1CC(=O)Nc2ccccc21
- IC50: > 50 µM (inactive)

SMILES: O=[N+]([O-])c1ccc(Nc2c3ccccc3nc3ccccc23)cc1
- IC50: > 50 µM (inactive)

SMILES: CN=C(Nc1cc(C)nn1CCC#N)c1ccccc1
- IC50: > 50 µM (inactive)

SMILES: CSc1ncccc1C(=O)OCC(=O)c1cc2ccccc2o1
- IC50: > 50 µM (inactive)

SMILES: CC12OC1C1(O)CCCC1=CC2=O (configuration not stated)
- IC50: > 50 µM (inactive)

SMILES: Cc1ccc(OCC(=O)c2cc(C)n(CC(F)(F)F)c2C)c([N+](=O)[O-])n1
- IC50: > 50 µM (inactive)

SMILES: N#C/C(=C\c1ccc(-c2ccc(F)cc2)o1)C(=O)Nc1nc(-c2cccs2)cs1
- IC50: > 50 µM (inactive)

SMILES: Cc1cccc(C)c1NC(=O)C1c2cccc[n+]2CC(=O)N1Cc1cccs1 (configuration not stated)
- IC50: > 50 µM (inactive)

SMILES: CCCN1CC(O)=C(C#N)C1=O
- IC50: > 50 µM (inactive)

SMILES: NS(=O)(=O)c1ccc(CCNC(=O)C(=O)c2c[nH]c3ccccc23)cc1
- IC50: > 50 µM (inactive)

SMILES: CC(C)CCNC(=O)C(c1ccco1)N(Cc1ccc(F)cc1)C(=O)c1snc(C(N)=O)c1N (configuration not stated)
- IC50: > 50 µM (inactive)

SMILES: CN(C)c1ccc(/C=C(\NC(=O)c2ccccc2)C(=O)NCc2ccncc2)cc1
- IC50: > 50 µM (inactive)

SMILES: O=[N+]([O-])c1cccc(-c2n[nH]c(=S)n2-c2ccc(Br)cc2)c1
- IC50: > 50 µM (inactive)

SMILES: O=C1C=C(Nc2ccc(Cl)cc2Cl)CC(c2ccco2)C1 (configuration not stated)
- IC50: > 50 µM (inactive)

SMILES: COc1ccc(CCNc2c3ccccc3nc3ccccc23)cc1OC
- IC50: 12.5 µM

SMILES: CCOC(=O)c1c(/N=C/c2ccc(C)cc2O)sc2c1CCN(C)C2
- IC50: > 50 µM (inactive)

SMILES: O=C1CC(/C=C/c2ccco2)=Nc2ccccc2N1
- IC50: > 50 µM (inactive)
